Test results taken from BindingDB's records for doi:10.1021/jm970559i (University of Michigan, 1998).

Tests used:
[1] = Antiviral activity against Human Immunodeficiency Virus by Reverse transcriptase assay in CEM-SS cells
[2] = Antiviral activity against Human Immunodeficiency Virus by Reverse transcriptase assay in CEM-SS
[3] = Antiviral activity against Human Immunodeficiency Virus by Reverse transcriptase assay in CEM-SS cells; remark: listed apart in the source
[4] = Antiviral activity against Human Immunodeficiency Virus by Reverse transcriptase (RT) assay in CEM-SS cells.
[5] = Antiviral activity against Human Immunodeficiency Virus by Reverse transcriptase assay CEM-SS cells

Compound | IC50 [1] | further results
FC(F)(F)c1cc(Cn2c(Br)nc3cc(Cl)c(Cl)cc32)cc(C(F)(F)F)c1 [1-(3,5-Bis-trifluoromethyl-benzyl)-2-bromo-5,6-dichloro-1H-benzoimidazole] | > 100 µM | –
Cc1cn([C@H]2C[C@H](N=[N+]=[N-])[C@@H](CO)O2)c(=O)[nH]c1=O [1-((2R,4S,5S)-4-Azido-5-hydroxymethyl-tetrahydro-furan-2-yl)-5-methyl-1H-pyrimidine-2,4-dione] | 0.0031 µM | –
Cc1ccc(Cn2c(Cl)nc3cc(Cl)c(Cl)cc32)cc1 [2,5,6-Trichloro-1-(4-methyl-benzyl)-1H-benzoimidazole] | – | IC50 [2]: > 100 µM
O=[N+]([O-])c1ccc(Cn2c(Cl)nc3cc(Cl)c(Cl)cc32)cc1 [2,5,6-Trichloro-1-(4-nitro-benzyl)-1H-benzoimidazole] | – | IC50 [3]: > 100 µM
Clc1ccc(Cn2c(Br)nc3cc(Cl)c(Cl)cc32)cc1Cl [2-Bromo-5,6-dichloro-1-(3,4-dichloro-benzyl)-1H-benzoimidazole] | > 100 µM | –
Cc1cccc(Cn2c(Br)nc3cc(Cl)c(Cl)cc32)c1 [2-Bromo-5,6-dichloro-1-(3-methyl-benzyl)-1H-benzoimidazole] | 66 µM | –
O=[N+]([O-])c1cccc(Cn2c(Br)nc3cc(Cl)c(Cl)cc32)c1 [2-Bromo-5,6-dichloro-1-(3-nitro-benzyl)-1H-benzoimidazole] | – | IC50 [4]: > 32 µM
COc1ccc(Cn2c(Br)nc3cc(Cl)c(Cl)cc32)cc1 [2-Bromo-5,6-dichloro-1-(4-methoxy-benzyl)-1H-benzoimidazole] | – | IC50 [5]: > 100 µM
